Experimental data reported in patent publication US20040038920A1, “Chlamydial peptides and their mimics in demyelinating disease” (priority 2003, published 2004).

Assays:
[1] = system: Lewis rats; test: Induction of EAE in Lewis rats by immunization with peptide in CFA; format: in vivo, rat; conditions: for EAE Incidence (# affected animals/total # animals injected) / EAE severity score (in parentheses): Table IV, dose not given; for EAE Severity (mean group severity, max. = 3.0) / EAE Incidence: Lewis rats; for EAE severity score (in parentheses): max. = 3.0; for Encephalitogenic activity in LEW rats (in words): peptide in CFA, s.c.
Protocol: Peptides were administered subcutaneously to LEW rats at 5 μg or 50 μg doses in the standard manner. Eight- to twelve-week-old female Lewis rats (purchased from Charles River, Raleigh, N.C.) were immunized subcutaneously at the hind footpad with the appropriate synthetic peptide, emulsified in complete Freund's adjuvant (CFA, Difco, Detroit, Mich.). […] Animals were followed for 21 days post-immunization. Hematoxylin-eosin-stained and toluidine blue-stained spinal cord sections from representative rats were examined for inflammatory cell infiltration and demyelination without knowledge of the group of origin.

[2] = system: T cells from rats immunized with the chlamydial peptide; test: T cell proliferation assay (3H-thymidine), Cpn0483-primed T cells; format: cell-based, rat; conditions: for Proliferation of peptide-primed T cells in response to irrelevant peptide: specificity control, priming peptide not specified; for Proliferative response of Cpn0483-primed T cells to peptide: 96 hr culture with irradiated thymocytes as APCs, FIG. 3
Protocol: (§1) To further investigate the immunopathology underlying the clinical observations, T cells were isolated from the spleens of rats immunized with Cpn0483 or MBP68-86, and recall responses were assessed using standard T cell proliferation assays.
(§2) Briefly, splenocytes were isolated from peptide-primed rats, adherent cells were removed by culture on plastic Petri dishes, and T cells were isolated on T cell columns (Biotec, Edmonton, Canada). The T cells were cultured for 96 hr with irradiated (2000rad) syngeneic thymocytes as antigen presenting cells (APCs), and peptide, in 96-well flat-bottom microtiter plates. The cultures were pulsed with ^3H-thymidine (0.5 μCi/well) 18 hr prior to harvesting cells, and 3H-thymidine incorporation was measured in a liquid scintillation counter (Wallac 1450 Microbeta Plus, Gaithersburg, Md.). Cultures were run in quadruplicate and each experiment was repeated at least twice. Dose-response studies were performed using various peptides at differing concentrations, and representative results are presented.

[3] = system: syngeneic recipients (LEW rats); test: Transfer of EAE with peptide-activated spleen cells from Cpn0483-immunized rats; format: in vivo, rat; conditions: Cpn0483-primed spleen cells activated in vitro with the named peptide for 72 hr
Protocol: Both are characteristic pathological findings in the rat model of EAE (Zamvil et al., supra; Swanborg, 1995, supra) and are also observed in MS (Raine et al., 1999, supra). […] This feature is prominent in MS, but is not characteristic of acute EAE in LEW rats. When spleen cells were prepared from Cpn0483-immunized LEW rats with EAE and activated in vitro with the same peptide for 72 hr, they transferred clinical disease to 6 of 9 syngeneic recipients. Six of 9 recipients of Cpn-primed spleen cells activated with MBP68-86 also developed clinical EAE. Mononuclear infiltration was present in the spinal cords of recipients with clinical disease, as expected.

[4] = system: T cells derived from rats immunized with rat MBP68-86; test: T cell proliferation assay (3H-thymidine), rat MBP68-86-primed T cells; format: cell-based; conditions: 96 hr culture with irradiated thymocytes as APCs, FIG. 4
Protocol: as §1, §2

[5] = system: short-term T cell line from Cpn0483 peptide-immunized rats; test: Cytokine secretion by short-term T cell line (ELISA); format: cell-based, rat; conditions: activated for 72 hr with the chlamydial peptide
Description: It has been well established that EAE in rodents is mediated by IFN-γ-producing Th1 inflammatory cells ((Zamvil et al., supra; Swanborg, supra; R. B. Smeltz et al., J. Immunol. 162, 829 (1999)).

[6] = 5 μg peptide s.c. in CFA, affected/total
[7] = 50 μg peptide s.c. in CFA, Table 2
[8] = 50 μg peptide s.c. in CFA, affected/total, Table 2
[9] = groups given either dose (5 μg or 50 μg)

Substance	EAE Incidence (# affected animals/total # animals injected) [1]	EAE Incidence ([1]; Incidence at 50 μg, Table 3)	EAE severity score (in parentheses) [1]	Encephalitogenic activity in LEW rats (in words) [1]	EAE Severity (mean group severity, max. = 3.0) [1, 7]	EAE Incidence [1, 8]	also measured
HYGCLLPRNPRTED (listed as Chlamydia pneumoniae) [N4/C2 truncated]	0/5	–	–	–	–	–	–
MBP11-30: irrelevant nonencephalitogenic peptide (SAEKASKDGEIHRGEAGKKR; UniProt P04370 11-30, looked up, fragment)	–	–	–	–	–	–	Proliferation of peptide-primed T cells in response to irrelevant peptide [2]: lack of proliferation
MBP31-50: irrelevant nonencephalitogenic peptide (SVGKLSQTASEDSDVFGEAD; UniProt P04370 31-50, looked up, fragment)	–	–	–	–	–	–	Proliferation of peptide-primed T cells in response to irrelevant peptide [2]: lack of proliferation
NHYGCLLPRNPRTED (listed as Chlamydia pneumoniae) [N3/C2 truncated]	0/5	–	–	–	–	–	–
PNHYGCLLPRNPRTEDQN (listed as Chlamydia pneumoniae) [N2—truncated]	0/5	–	–	–	–	–	–
RFPNHYGCLLPRNPR (listed as Chlamydia pneumoniae) [C5—truncated]	0/5	–	–	–	–	–	–
RFPNHYGCLLPRNPRTEAQN (listed as Chlamydia pneumoniae) [Cpn D>A]	9/10	9/10	2.7	elicited severe EAE	–	–	EAE Severity (mean group severity, max. = 3.0) ([1]; 50 μg, Table 3): 2.7
RFPNHYGCLLPRNPRTEDQN (listed as Chlamydia pneumoniae) [Cpn0483, 20-mer peptide near the C-terminus of C. pneumoniae protein Cpn0483]	5/5	5/5	3.0	encephalitogenic	2.3	14/15	EAE Severity (mean group severity, max. = 3.0) ([1]; 5 μg peptide s.c. in CFA): 1.8; EAE Incidence [1, 6]: 3/5; EAE Severity (mean group severity, max. = 3.0) ([1]; 50 μg, Table 3): 3.0; Demyelination in spinal cord sections ([1]; Luxol fast blue-stained sections): Significant demyelination was not observed; Initial clinical signs of EAE, time post-immunization [1, 9]: approximately 12 days; Persistence of clinical signs of EAE [1, 9]: 3 to 6 days; Encephalitogenic activity in LEW rats (in words) ([1]; listed as chlamydial peptide): as effective as guinea pig or rat MBP68-86 peptide in causing paralysis; Spinal cord inflammatory cell infiltration (histology) ([1]; spinal cords of immunized rats): Extensive perivascular cuffing and parenchymal mononuclear cell infiltration; Recipients developing clinical EAE after cell transfer [3]: 6 of 9; Proliferative response of Cpn0483-primed T cells to peptide [2]: respond to priming peptide; Proliferative response of Cpn0483-primed T cells to peptide ([2]; listed as chlamydial peptide): responded vigorously; Proliferative response of rat MBP68-86-primed T cells to peptide [4]: cross-reacted only minimally; Proliferative response of rat MBP68-86-primed T cells to peptide ([4]; listed as chlamydial peptide): cross-react; IFN-γ secreted [5]: 7,000 pg/ml; IL-4 production [5]: did not produce detectable IL-4
RFPNHYGSLLPRNPRTEDQN (listed as Chlamydia pneumoniae) [Cpn0483 C > S]	8/10	–	2.4	lack of effect	2.2	4/5	EAE Severity (mean group severity, max. = 3.0) ([1]; 5 μg peptide s.c. in CFA): 2.4; EAE Incidence [1, 6]: 4/5
YGCLLPRNPRTEDQN (listed as Chlamydia pneumoniae) [N5—truncated]	0/5	–	–	–	–	–	–
YGSLPQKSORTQAENPV (YGSLPQKSQRSQAENPV; listed as Rattus sp.) [MBP D>A, reference compound]	–	0/10	–	abolished encephalitogenic activity	–	–	–
YGSLPQKSQRSQDENPV (Guinea pig) [gp68-86, guinea pig myelin basic protein peptide 68-86, reference compound]	–	–	–	induced clinical disease with comparable severity and time course	3.0	5/5	–
YGSLPQKSQRTQDENPV (listed as Rattus sp.) [rat68-86, rat myelin basic protein peptide 68-86, reference compound]	5/5	5/5	3.0	induced clinical disease with comparable severity and time course	2.7	10/10	EAE Severity (mean group severity, max. = 3.0) ([1]; 50 μg, Table 3): 3.0; Recipients developing clinical EAE after cell transfer [3]: Six of 9; Proliferative response of Cpn0483-primed T cells to peptide ([2]; listed as rat MBP68-86): responded significantly; Proliferative response of Cpn0483-primed T cells to peptide ([2]; listed as ratMBP68-86): cross-react; Proliferative response of rat MBP68-86-primed T cells to peptide ([4]; listed as rat MBP68-86): proliferated vigorously; Proliferative response of rat MBP68-86-primed T cells to peptide ([4]; listed as ratMBP68-86): respond to priming peptide
